Laboratory results from patent publication US12325708B2, “Adenosine 2 receptor antagonists” (Nektar Therapeutics, priority 2019, dated 2025).

Tests used:
[1] = Brain-to-plasma ratio (B/P) after administration; format: in vivo, Sprague-Dawley rats; details: Sprague-Dawley, rat, brain-to-plasma ratio at 1 h
Description: A similar unexpected result was obtained when the phenyl ring present on Compound 1 was replaced with a halogen substituted pyridine. The halogen was previously introduced on the phenyl ring with the aim of blocking a possible metabolic soft-spot, with similar results observed as for Compound 1 in terms of exposure, clearance and bioavailability (Compound 10 and Compound 15). The substituted pyridine ring was designed to modulate the lipophilicity and polar surface area, as well as to address metabolic soft-spot concerns. Clearance and bioavailability parameters remain similar between substituted phenyl and pyridine (Compound 4 and Compound 14) analogs, which span a range in cLogP of 2.7-3.2. It was therefore surprising the significant improvement in exposure and clearance observed for the more lipophilic Compound 19. […] A compound is commonly deemed to be a brain penetrant if the brain-to-blood/plasma concentration ratio (B/P) is greater than 0.04 using methods as known in the art (Schaffer, Annual Reports in Medicinal Chemistry, 45:55-70, 2010).
Plasma pharmacokinetic parameters were determined following oral (PO) administration of further compounds essentially as described in Example 28 with the results shown in Table 6.

A1 receptor = biological target: T1, A1 receptor (Homo sapiens, UniProt P30542); experiment: Radioligand receptor binding assay, A1 receptor; details: cell membranes overexpressing A1 receptor, read-out: Potency Ki A1
T1 construct: purchased
T1 sequence (P30542 1-326): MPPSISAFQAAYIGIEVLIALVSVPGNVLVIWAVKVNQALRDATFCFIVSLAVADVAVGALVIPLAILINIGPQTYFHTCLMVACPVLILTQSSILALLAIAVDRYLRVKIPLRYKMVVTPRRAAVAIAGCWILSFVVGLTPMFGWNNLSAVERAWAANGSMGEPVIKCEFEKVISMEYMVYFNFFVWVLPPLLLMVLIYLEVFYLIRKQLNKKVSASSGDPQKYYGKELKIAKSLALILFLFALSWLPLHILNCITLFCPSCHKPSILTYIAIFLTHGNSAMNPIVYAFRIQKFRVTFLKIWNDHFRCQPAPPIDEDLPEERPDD
Procedure: (§1) Using conventional receptor binding assay techniques, Compounds 1-24 were assayed to determine binding activity at the A2A, A1, and A3 receptors with the results shown in Table 7.
(§2) Receptor binding affinity of Compounds 1-24 was measured using radioligand binding assays using commercially obtained cell membranes prepared from cell lines overexpressing the A2A, A1, or A3 receptors. Briefly, cell membrane preparations from cells expressing the specific receptor were mixed with the appropriate [^3H]-labeled tracer for the specific receptor and the test compound or a known inhibitor of receptor-ligand binding. Following 60 min incubation at room temperature to allow receptor-ligand complex formation, the complexes were collected by filtration, washed with 50 mM Tris HCl (pH 7.5) to remove radioligand that was not receptor-bound, and the remaining radioactivity determined by liquid scintillation counting. Specific radioligand binding was calculated for each test compound concentration and IC50 values were determined by non-linear, regression analysis. Inhibition constants (Ki) were calculated using the equation of Cheng and Prusoff using the observed IC50 of the tested compound, the concentration of radioligand employed in the assay and the experimentally determined values for the Kd of the ligand.

A2A receptor = biological target: T2, A2A receptor (Homo sapiens, UniProt P29274); experiment: Radioligand receptor binding assay, A2A receptor; details: cell membranes overexpressing A2A receptor, read-out: Potency Ki A2A
T2 construct: purchased
Procedure: as §1, §2

[2] = Plasma pharmacokinetic parameters following intravenous (IV) or oral (PO) administration in rats; format: in vivo, Sprague-Dawley rats; details: male, Sprague-Dawley, rat, plasma; for AUC / bioavailability: 2.5 mg/kg; for clearance: intravenous, 0.5 mg/kg
Procedure: (§3) Adult male Sprague-Dawley rats (230-250 g) (Charles River Labs, Hollister, CA) were utilized for the study. There were 2 rats/group. All animals were food fasted overnight with water provided ad libitum at all times. Compounds 1, 4, 14 and 19 were synthesized as described in Examples 2, 17, 7, and 12, respectively, and formulated in injectable water.
(§4) The morning of each dosing, individual doses were calculated based on current body weights on the day of dosing. The jugular vein cannula (JVC) and the carotid artery cannula (CAC) were externalized, flushed with HEP/saline (10 IU/mL HEP/mL saline), plugged, and labeled to identify the jugular vein and the carotid artery. The IV group animals were dosed at 0.5 mg/kg of Compound 1, 4, 14 or 19, respectively, intravenously via the jugular vein, while the PO dose was administered 2.5 mg/kg of Compound 1, 4, 14 or 19, respectively, orally via gavage. For the IV group, immediately following the dose of test article, the dead volume of the catheter was flushed with 0.9% saline to ensure the animals received the full dose.
Approximately 0.2 mL of blood was collected per time point from JVC. Blood samples were collected at 2 (IV group only), 5, 15, 30, 60, 120, 240, 360, 420 (Compound 19 only), 480, 720 (Compound 19 only), and 1440 minutes via the CAC and transferred immediately into K2EDTA coated tubes pre-loaded 2 μl with quenching cocktail and placed on wet ice. The samples were centrifuged within 30 min after collection at 10,000 RPM for 5 minutes and the resulting plasma was separated. Plasma was transferred into microfuge tubes and placed on dry ice immediately. The plasma samples were stored at approximately −70° C. until bioanalysis.
Plasma samples were extracted by protein precipitation with acetonitrile containing 0.1% formic acid and doxepin for Compound 1 (available from Sigma-Aldrich) or SCH58261 for Compounds 4, 14 and 19 (available from Sigma-Aldrich) as an internal standard. Following vortex and centrifugation, supernatant was diluted 3-fold with water containing 0.1% formic acid and analyzed by LC-MS/MS.
Pharmacokinetic parameters (PK) were determined by non-compartmental analysis (NCA) using Phoenix 64 WinNonlin (version 8) and Dotmatics (version 5.0). Nominal doses and time points were used for the analysis.
The following PK parameters were estimated using plasma concentration-time profile of each animal with the results presented in Table 3: • AUCinf Area under the concentration-time from zero to time infinity • AUClast Area under the concentration-time from zero to time of last concentration value • F Bioavailability • CL Total body clearance • Cmax Maximum (peak) concentration • MRTlast Mean residence time to last observable concentration • Tmax Time to reach maximum or peak concentration following administration • Vss Volume of distribution at steady state
as §3, with “Compound 1 was” for “Compounds 1, 4, 14 and 19 were”, “Example 2” for “Examples 2, 17, 7, and 12, respectively,”
as §4, with “1” for “1, 4, 14 or 19, respectively,”
Approximately 0.2 mL of blood was collected per time point from JVC. […]

[3] = Table 6, oral (PO) administration essentially as described in Example 28
[4] = Table 6, essentially as described in Example 28
[5] = po, Table 6, oral (PO) administration essentially as described in Example 28
[6] = oral, Table 2 summary of Example 27, values marked 1 are the average of experiments

T2 sequence (P29274 whole entry): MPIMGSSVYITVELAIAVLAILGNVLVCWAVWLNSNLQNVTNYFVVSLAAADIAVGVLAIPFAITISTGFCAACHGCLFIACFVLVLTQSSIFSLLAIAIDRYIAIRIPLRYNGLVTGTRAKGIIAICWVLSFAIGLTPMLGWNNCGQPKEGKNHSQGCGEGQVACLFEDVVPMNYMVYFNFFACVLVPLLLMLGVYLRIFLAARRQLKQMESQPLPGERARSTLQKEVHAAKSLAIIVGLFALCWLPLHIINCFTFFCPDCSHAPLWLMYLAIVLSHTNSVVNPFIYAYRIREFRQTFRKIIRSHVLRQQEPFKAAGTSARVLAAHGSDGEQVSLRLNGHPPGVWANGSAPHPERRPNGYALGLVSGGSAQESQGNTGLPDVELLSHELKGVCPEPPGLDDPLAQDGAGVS

| Kp at 1 h ([1]; oral, 2.5 mg/kg, Table 6) | Ki (A1 receptor) [nM] | Ki (A2A receptor) [nM] | AUC [2, 3] [ng·h/mL] | clearance [2, 4] [mL/min/kg] | bioavailability [2, 5] [%] | Kp at 1 h ([1]; Table 2) | clearance ([2]; Table 2 summary of Example 27, values marked 1 are the average of experiments) [mL/min/kg] | AUC [2, 6] [ng·h/mL] | bioavailability [2, 6] [%] | half-life ([2]; Table 6, printed in the CL column, read-out: t½ (converted)) [h] | SMILES |
| --- | --- | --- | --- | --- | --- | --- | --- | --- | --- | --- | --- |
| 0.05 | 3080 | 8 | 429 | 30 | 31 |  |  |  |  |  | COCCOc1cnc(N2CCN3[C@H](CC[C@H]3CN(C)c3cc4nc(-c5ncco5)nn4c(N)n3)C2)c(F)c1 [Compound 21, N^7—({(6S,8aR)-2-[3-fluoro-5-(2-methoxyethoxy)pyridin-2-yl]octahydropyrrolo[1,2-a]pyrazin-6-yl}methyl)-N^7-methyl-2-(1,3-oxazol-2-yl)[1,2,4]triazolo[1,5-c]pyrimidine-5,7-diamine] |
| 0.1 | > 10000 | 7 | 971 | 21 | 48 |  |  |  |  |  | CN(CCN1CCN(c2ccc(OCCOC(F)(F)F)cc2)CC1)c1cc2nc(-c3ncco3)nn2c(N)n1 [Compound 5, N^7-methyl-2-(1,3-oxazol-2-yl)-N^7-[2-(4-{4-[2-(trifluoromethoxy)ethoxy]phenyl}piperazin-1-yl)ethyl][1,2,4]triazolo[1,5-c]pyrimidine-5,7-diamine] |
|  | 1270 | 2.6 |  |  |  | 0.17 | 34 | 408 | 34 |  | COCCOc1ccc(N2CCN(CCN(C)c3cc4nc(-c5ccco5)nn4c(N)n3)CC2)cc1 [Reference compound, 2-(furan-2-yl)-N^7-(2-(4-(4-(2-methoxyethoxy)phenyl)piperazin-1-yl)ethyl)-N^7-methyl-[1,2,4]triazolo[1,5-c]pyrimidine-5,7-diamine, reference compound] |
| 0.05 | > 4000 | 12 | 852 | 34 | 64 |  |  |  |  |  | [2H]C([2H])([2H])N(CCN1CCN(c2ccc(OCCOC)cc2)CC1)c1cc2nc(-c3ncco3)nn2c(N)n1 [Compound 6, N^7-(2-{4-[4-(2-methoxyethoxy)phenyl]piperazin-1-yl}ethyl)-N^7-(^2H3)methyl-2-(1,3-oxazol-2-yl)[1,2,4]triazolo[1,5-c]pyrimidine-5,7-diamine] |
| 0.05 | 3940 | 2.3 | 1160 | 20 | 57 |  |  |  |  | 1.2 | COCCOc1ccc(N2CCN(CCN(C)c3cc4nc(-c5ncco5)nn4c(N)n3)CC2)c(Cl)c1 [Compound 15, N^7-(2-{4-[2-chloro-4-(2-methoxyethoxy)phenyl]piperazin-1-yl}ethyl)-N^7-methyl-2-(1,3-oxazol-2-yl)[1,2,4]triazolo[1,5-c]pyrimidine-5,7-diamine] |
| 0.04 | 13000 | 7 | 320 | 54 | 43 |  |  |  |  |  | COCCOc1ccc(N2CCN(CCN(C)c3nc(N)n4nc(-c5ncco5)nc4n3)CC2)cc1 [Compound 2, N^5-(2-{4-[4-(2-methoxyethoxy)phenyl]piperazin-1-yl}ethyl)-N^5-methyl-2-(1,3-oxazol-2-yl)[1,2,4]triazolo[1,5-a][1,3,5]triazine-5,7-diamine] |
| 0.03 | > 100000 | 4 | 1000 | 23 | 56 |  |  |  |  |  | [2H]C([2H])([2H])OC([2H])([2H])C([2H])([2H])Oc1ccc(N2CCN(CCN(C)c3cc4nc(-c5ncco5)nn4c(N)n3)CC2)cc1 [Compound 12, N^7-methyl-N^7-(2-{4-[4-({2-[(^2H3)methyloxy](^2H4)ethyl}oxy)phenyl]piperazin-1-yl}ethyl)-2-(1,3-oxazol-2-yl)[1,2,4]triazolo[1,5-c]pyrimidine-5,7-diamine] |
| 0.09 | > 100000 | 8 | 900 | 33 | 71 |  |  |  |  |  | [2H]C([2H])([2H])OC([2H])([2H])C([2H])([2H])Oc1ccc(N2CCN(CCN(c3cc4nc(-c5ncco5)nn4c(N)n3)C([2H])([2H])[2H])CC2)cc1 [Compound 18, N^7-(^2H3)methyl-N^7-(2-{4-[4-({2-[(^2H3)methyloxy](^2H4)ethyl}oxy)phenyl]piperazin-1-yl}ethyl)-2-(1,3-oxazol-2-yl)[1,2,4]triazolo[1,5-c]pyrimidine-5,7-diamine] |
| 0.08 | 15500 | 9 | 336 | 52 | 42 |  |  |  |  |  | COCCOc1ccc(N2CCN(CCN(C)c3cc4nc(-c5ncco5)nn4c(N)n3)CC2)nc1 [Compound 23, N^7-(2-{4-[5-(2-methoxyethoxy)pyridin-2-yl]piperazin-1-yl}ethyl)-N^7-methyl-2-(1,3-oxazol-2-yl)[1,2,4]triazolo[1,5-c]pyrimidine-5,7-diamine] |
